Key:
ErbB-2 (HER-2) = ErbB-2 (HER-2) (Homo sapiens, UniProt P04626); test: Inhibition of ErbB-2 (HER-2) tyrosine kinase activity; format: biochemical
Experimental: The inhibitory activity (IC50) is approximately in the range of 0.001 to 0.5 μM. The inhibition of ErbB2 tyrosine kinase (HER-2) can be determined, for example, analogously to the method used for EGF-R protein tyrosine kinase [see C. House et al., Europ. J. Biochem. 140. 363-367 (1984)]. The ErbB-2 kinase can be isolated, and its activity determined, by means of protocols known per se, for example in accordance with T. Akiyama et al., Science 232 1644 (1986).
(§1) Inhibition of the tyrosine kinase Activity of EGF-R (HER-1), ErbB-2 (HER-2) and VEGF Receptor (KDR)
(§2) The inhibition tests are carried out as described above.

VEGF Receptor (KDR) = target: T1, VEGF Receptor (KDR) (Homo sapiens, UniProt P35968); test: Inhibition of VEGF receptor (KDR) tyrosine kinase activity; format: biochemical
T1 construct: as in the cited Wood et al. 2000 method
T1 sequence (P35968 834-1162 limits assumed): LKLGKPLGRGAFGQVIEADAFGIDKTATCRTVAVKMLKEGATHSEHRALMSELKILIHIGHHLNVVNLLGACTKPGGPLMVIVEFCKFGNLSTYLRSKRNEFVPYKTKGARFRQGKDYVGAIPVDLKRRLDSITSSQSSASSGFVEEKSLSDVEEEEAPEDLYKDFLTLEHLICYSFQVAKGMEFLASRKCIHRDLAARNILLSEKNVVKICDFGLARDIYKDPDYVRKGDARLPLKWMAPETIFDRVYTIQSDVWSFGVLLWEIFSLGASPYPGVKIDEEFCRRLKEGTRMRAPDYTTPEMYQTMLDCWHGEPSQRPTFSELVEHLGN
Experimental: The compounds of the present invention are therefore very effective dual inhibitors of EGF- and VEGF-receptor family members. For inhibition of KDR and Flt-1 and inhibition of growth factor-induced proliferation of HUVECS see J. Wood et al., Cancer Res. 60, 2178-2189 (2000). The compounds of formula I inhibit e.g. the KDR tyrosine kinase activity with an IC50 of from about 1 nM to about 1 μM, especially from about 5 nM to about 0.5 μM.
as §1, §2

EGF-R (HER-1) = target: T2, EGF-R (HER-1) (Homo sapiens, UniProt P00533); test: Inhibition of EGF-R (HER-1) tyrosine kinase activity; format: biochemical; details: recombinant intracellular domain of the EGF-receptor
T2 construct: using the recombinant intracellular domain of the EGF-receptor [EGF-R ICD
T2 sequence (P00533 669-1210 limits assumed): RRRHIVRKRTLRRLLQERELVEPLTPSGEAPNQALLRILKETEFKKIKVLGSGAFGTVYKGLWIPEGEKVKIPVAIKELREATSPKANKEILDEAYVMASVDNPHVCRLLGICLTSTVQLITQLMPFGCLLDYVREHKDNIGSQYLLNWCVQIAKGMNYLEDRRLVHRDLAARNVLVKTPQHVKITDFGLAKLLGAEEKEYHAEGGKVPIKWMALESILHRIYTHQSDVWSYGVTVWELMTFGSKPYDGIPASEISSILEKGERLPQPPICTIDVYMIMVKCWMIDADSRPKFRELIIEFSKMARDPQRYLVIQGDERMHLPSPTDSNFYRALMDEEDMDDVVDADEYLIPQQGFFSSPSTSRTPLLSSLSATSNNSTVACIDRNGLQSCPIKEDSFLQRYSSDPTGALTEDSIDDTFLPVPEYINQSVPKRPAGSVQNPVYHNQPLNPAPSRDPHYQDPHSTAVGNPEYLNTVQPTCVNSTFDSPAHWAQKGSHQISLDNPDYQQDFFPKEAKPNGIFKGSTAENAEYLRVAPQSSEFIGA
Experimental: J. Biochem. 207, 265-275 (1992)]. Compared with the control without inhibitor, the compounds of formula I inhibit the enzyme activity by 50% (IC50), for example in a concentration of from 0.0005 to 0.5 μM, especially from 0.001 to 0.1 μM.
as §1, §2

Sequence of ErbB-2 (HER-2) (P04626 23-1255): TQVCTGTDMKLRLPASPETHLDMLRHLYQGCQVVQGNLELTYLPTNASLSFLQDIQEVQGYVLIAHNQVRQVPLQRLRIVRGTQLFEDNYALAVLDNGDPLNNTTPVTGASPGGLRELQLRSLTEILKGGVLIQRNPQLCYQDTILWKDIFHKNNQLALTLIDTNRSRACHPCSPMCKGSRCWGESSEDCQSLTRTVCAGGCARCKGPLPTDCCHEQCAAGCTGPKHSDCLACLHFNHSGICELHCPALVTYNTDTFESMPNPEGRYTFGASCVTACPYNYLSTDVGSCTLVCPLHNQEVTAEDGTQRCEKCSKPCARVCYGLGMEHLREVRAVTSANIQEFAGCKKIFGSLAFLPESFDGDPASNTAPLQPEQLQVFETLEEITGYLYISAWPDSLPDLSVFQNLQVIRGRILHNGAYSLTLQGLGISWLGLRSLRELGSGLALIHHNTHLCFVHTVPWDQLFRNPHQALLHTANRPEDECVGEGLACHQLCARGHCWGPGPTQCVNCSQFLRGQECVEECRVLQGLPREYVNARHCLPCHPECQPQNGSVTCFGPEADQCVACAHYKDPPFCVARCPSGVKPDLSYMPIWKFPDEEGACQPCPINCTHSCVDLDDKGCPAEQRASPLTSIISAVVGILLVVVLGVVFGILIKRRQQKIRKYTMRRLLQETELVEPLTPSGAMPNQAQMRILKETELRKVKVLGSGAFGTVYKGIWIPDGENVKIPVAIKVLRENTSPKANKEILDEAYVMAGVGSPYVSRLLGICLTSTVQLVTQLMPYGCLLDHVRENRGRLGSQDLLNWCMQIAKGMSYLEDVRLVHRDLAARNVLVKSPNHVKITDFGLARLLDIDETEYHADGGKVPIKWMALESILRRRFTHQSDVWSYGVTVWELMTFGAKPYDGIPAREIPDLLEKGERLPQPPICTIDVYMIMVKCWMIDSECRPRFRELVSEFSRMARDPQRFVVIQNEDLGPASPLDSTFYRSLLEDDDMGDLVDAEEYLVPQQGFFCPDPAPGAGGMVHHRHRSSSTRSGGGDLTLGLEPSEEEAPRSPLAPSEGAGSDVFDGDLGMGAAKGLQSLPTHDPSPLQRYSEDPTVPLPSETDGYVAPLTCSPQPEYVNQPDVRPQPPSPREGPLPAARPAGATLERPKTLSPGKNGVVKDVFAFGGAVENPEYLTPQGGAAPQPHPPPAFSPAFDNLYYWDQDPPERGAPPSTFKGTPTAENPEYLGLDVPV

| Compound | IC50 (ErbB-2 (HER-2)) [nM] | IC50 (VEGF Receptor (KDR)) [nM] | IC50 (EGF-R (HER-1)) [nM] | melting point [°C] |
| --- | --- | --- | --- | --- |
| Cc1cccc(-c2n[nH]cc2-c2ccnc(Nc3ccc(N4CCN(C)CC4)cc3)n2)c1 [Example 18, [4-(4-Methyl-piperazin-1yl)-phenyl]-[4-(3-m-tolyl-1H-pyrazol-4-yl)-pyrimidin-2-yl]-amine] | 13 | 4 | 21 | – |
| Cc1ccc(-c2n[nH]cc2-c2ccnc(Nc3cccc(OCC4CCN(C)CC4)c3)n2)cc1 [Example 124, [3-(1-Methyl-piperidin-4-ylmethoxy)-phenyl]-[4-(3-p-tolyl-1H-pyrazol-4yl)-pyrimidin-2-yl]-amine] | 17 | 5 | 3 | – |
| COc1cc(Nc2nccc(-c3c[nH]nc3-c3ccc4c(c3)OCO4)n2)cc(OC)c1OC [Example 46, [4-(3-Benzo[1,3]dioxol-5-yl-1H-pyrazol-4-yl)-pyrimidin-2-yl]-(3,4,5-trimethoxy-phenyl)-amine] | 6 | 3 | 28 | – |
| CN1CCN(c2ccc(Nc3nccc(-c4cn(C)nc4-c4ccc(Cl)cc4)n3)cc2)CC1 [Example 91, {4-[3-(4-Chloro-phenyl)1-methyl-1H-pyrazol-4yl]-pyrimidin-2-yl}-[4-(4-methyl-piperazin-1-yl)-phenyl]-amine] | 42 | 28 | 18 | – |
| Cc1cccc(-c2n[nH]cc2-c2ccnc(Nc3ccc(OCCN(C)C)cc3)n2)c1 [Example 20, [4-(2-Dimethylamino-ethoxy)-phenyl]-[4-(3-m-tolyl-1H-pyrazol-4-yl)-pyrimidin-2-yl]-amine] | 15 | 6 | 27 | – |
| CN(C)CCOc1ccc(Nc2nccc(-c3c[nH]nc3-c3ccc(Cl)cc3)n2)cc1 [Example 2, {4-[3-(4-Chloro-phenyl)-1H-pyrazol-4-yl]-pyrimidin-2-yl}-[4-(2-dimethyl-amino-ethoxy)-phenyl]-amine] | 19 | 21 | 22 | – |
| Cc1ccc(-c2c(-c3ccnc(Nc4ccc(N5CCN(C)CC5)cc4)n3)cnn2CCN(C)C)cc1 [Example 54, {4-[1-(2-Dimethylamino-ethyl)-5-p-tolyl-1H-pyrazol-4-yl]-pyrimidin-2-yl}-[4-(4-methyl-piperazin-1-yl)-phenyl]-amine] | – | – | – | 184 |
| Cc1ccc(-c2nn(C3CCN(C)CC3)cc2-c2ccnc(Nc3ccc(CN4CCN(C)CC4)cc3)n2)cc1 [Example 85, [4-(4-Methyl-piperazin-1-ylmethyl)-phenyl]-{4-[1-(1-methyl-piperidin-4-yl)-3-p-tolyl-1H-pyrazol-4-yl]-pyrimidin-2-yl}-amine] | – | – | – | 174 |
| COc1cc(Nc2nccc(-c3c[nH]nc3-c3ccccc3Cl)n2)cc(OC)c1OC [Example 53, {4-[3-(2-Chloro-phenyl)-1H-pyrazol-4-yl]-pyrimidin-2-yl}-(3,4,5-trimethoxy-phenyl)-amine] | – | – | – | 257.5 |
| Cc1cccc(-c2n[nH]cc2-c2ccnc(Nc3ccc(N4CCN(C)CC4)cc3)n2)c1C [Example 50, {4-[3-(2,3-Dimethyl-phenyl)-1H-pyrazol-4-yl]-pyrimidin-2-yl}-[4-(4-methyl-piperazin-1-yl)phenyl]-amine] | – | – | – | 305 |
| Clc1ccc(-c2n[nH]cc2-c2ccnc(Nc3ccc(N4CCNCC4)cc3)n2)cc1 [Example 122, {4-[3-(4-Chloro-phenyl)-1H-pyrazol-4yl]-pyrimidin-2-yl}-(4piperazin-1-yl-phenyl)-amine] | – | – | – | 214 |
| COc1cc(OC)cc(-c2n[nH]cc2-c2ccnc(Nc3cccc(S(N)(=O)=O)c3)n2)c1 [Example 113, 3-{4-[3-(3,5-Dimethoxy-phenyl)-1H-pyrazol-4-yl]-pyrimidin-2-ylamino}-benzenesulfonamide] | – | – | – | 257 |
| CN(C)CCn1ncc(-c2ccnc(Nc3ccc(CN4CCN(C)CC4)cc3)n2)c1-c1ccc(Cl)cc1 [Example 77, {4-[5-(4-Chloro-phenyl)-1-(2-dimethylamino-ethyl)-1H-pyrazol-4yl]-pyrimidin-2-yl}-[4-(4-methyl-piperazin-1-ylmethyl)-phenyl]-amine] | – | – | – | 159 |
| Cc1ccc(-c2nn(C)cc2-c2ccnc(Nc3ccc(N4CCN(C)CC4)cc3)n2)cc1 [Example 64, [4-(4-Methyl-piperazin-1-yl)-phenyl]-[4-(1-methyl-3-p-tolyl-1H-pyrazol-4-yl)-pyrimidin-2-yl]-amine] | – | – | – | 203 |
| CN(C)CCOc1ccc(Nc2nccc(-c3c[nH]nc3-c3ccc(Cl)c(Cl)c3)n2)cc1 [Example 21, {4-[3-(3,4-Dichloro-phenyl)-1H-pyrazol-4-yl]-pyrimidin-2-yl}-[4-(2-dimethylamino-ethoxy)-phenyl]-amine] | 16 | 15 | 29 | – |
| CN1CCC(COc2cccc(Nc3nccc(-c4cn(C)nc4-c4ccc(Cl)cc4)n3)c2)CC1 [Example 112, {4-[3-(4-Chloro-phenyl)-1-methyl-1H-pyrazol-4-yl]-pyrimidin-2-yl}-[3-(1-methyl-piperidin-4-ylmethoxy)-phenyl]-amine] | – | – | – | 138 |
| Cc1ccc(-c2c(-c3ccnc(Nc4ccc(N5CCN(C)CC5)cc4)n3)cnn2C)cc1 [Example 63, [4-(4-Methyl-piperazin-1-yl)-phenyl]-[4-(1-methyl-5-p-tolyl-1H-pyrazol-4-yl)-pyrimidin-2-yl]-amine] | – | – | – | 261 |
| CC1(C)CC(NCc2ccc(Nc3nccc(-c4c[nH]nc4-c4ccccc4)n3)cc2)CC(C)(C)N1 [Example 120, [4(3-Phenyl-1H-pyrazol-4-yl)-pyrimidin-2-yl]-{4[(2,2,6,6-tetramethyl-piperidin-4-ylamino)-methyl]-phenyl}-amine] | – | – | – | 213 |

Further lines, results first:

| IC50 (ErbB-2 (HER-2)) [nM] | IC50 (VEGF Receptor (KDR)) [nM] | IC50 (EGF-R (HER-1)) [nM] | melting point [°C] | Compound |
| --- | --- | --- | --- | --- |
| 44 | 10 | 20 | 250 | Cc1ccc(-c2n[nH]cc2-c2ccnc(Nc3ccc(CN4CCN(C)CC4)cc3)n2)cc1 [Example 60, [4-(4-Methyl-piperazin-1-ylmethyl)-phenyl]-[4-(3-p-tolyl-1H-pyrazol-4-yl)-pyrimidin-2-yl]-amine] |
| 28 | 4 | 13 | – | CCN1CCN(Cc2ccc(Nc3nccc(-c4c[nH]nc4-c4ccc(C)cc4)n3)cc2)CC1 [Example 101, [4-(4-Ethyl-piperazin-1-ylmethyl)-phenyl]-[4-(3-p-tolyl-1H-pyrazol-4)-pyrimidin-2-yl]-amine] |
| – | – | – | 264 | Cc1ccc(-c2n[nH]cc2-c2ccnc(Nc3ccc(C(=O)N4CCN(C)CC4)cc3)n2)cc1 [Example 59, (4Methyl-piperazin-1-yl)-{4-[4-(3-p-tolyl-1H-pyrazol-4-yl)-pyrimidin-2-ylamino]-phenyl}-methanone] |
| – | – | – | 227 | CCN1CCN(Cc2ccc(Nc3nccc(-c4c[nH]nc4-c4ccccc4)n3)cc2)CC1 [Example 115, [4-(4-Ethyl-piperazin-1-ylmethyl)-phenyl]-[4-(3-phenyl-1H-pyrazol-4-yl)-pyrimidin-2-yl]-amine] |
| – | – | – | 88 | CCN1CCN(Cc2ccc(Nc3nccc(-c4cn(C)nc4-c4ccc(C)cc4)n3)cc2)CC1 [Example 117, [4-(4-Ethyl-piperazin-1-ylmethyl)-phenyl]-[4-(1-methyl-3-p-tolyl-1H-pyrazol-4-yl)-pyrimidin-2-yl]-amine] |
| – | – | – | 233 | Cc1ccc(-c2n[nH]cc2-c2ccnc(Nc3ccc(CN4CCN(CCO)CC4)cc3)n2)cc1 [Example 111, 2-(4-{4-[4-(3-p-Tolyl-1H-pyrazol-4yl)-pyrimidin-2-ylamino]-benzyl}piperazin-1-yl)-ethanol] |
| – | – | – | 192 | Cc1ccc(-c2c(-c3ccnc(Nc4ccc(CN5CCN(C)CC5)cc4)n3)cnn2C)cc1 [Example 65, [4-(4-Methyl-piperazin-1-ylmethyl)-phenyl]-[4(1-methyl-5-p-tolyl-1H-pyrazol-4-yl)-pyrimidin-2-yl]-amine] |
| – | – | – | 151 | Cc1ccc(-c2nn(C)cc2-c2ccnc(Nc3ccc(CN4CCN(C)CC4)cc3)n2)cc1 [Example 66, [4-(4-Methyl-piperazin-1-ylmethyl)-phenyl]-[4-(1-methyl-3-p-tolyl-1H-pyrazol-4-yl)-pyrimidin-2-yl]-amine] |
| – | – | – | 82 | CCN1CCN(Cc2ccc(Nc3nccc(-c4cnn(C)c4-c4ccc(C)cc4)n3)cc2)CC1 [Example 118, [4-(4-Ethyl-piperazin-1-ylmethyl)-phenyl]-[4-(1-methyl-5-p-tolyl-1H-pyrazol-4-yl)-pyrimidin-2-yl]-amine] |
| – | – | – | 186 | CN1CCN(Cc2ccc(Nc3nccc(-c4cnn(C)c4-c4ccc(Cl)cc4)n3)cc2)CC1 [Example 79, {4-[5-(4Chloro-phenyl)-1-methyl-1H-pyrazol-4-yl]-pyrimidin-2-yl}-[4-(4-methyl-piperazin-1-ylmethyl)-phenyl]-amine] |
